Experimental data taken from US20030073618A1, “Compounds comprising disulfide-containing peptides and nitrogenous bases, and medical uses thereof” (priority 2001, published 2003).
Marks after values point to notes of the source that are not given here.

What was measured:
hepatitis B virus (HBV) [1] = assay: Efficacy study in chronic viral hepatitis B, 62 patients (Tables 47-49); type: in vivo, human; conditions: month 1 (after treatment)
Excerpt: State of patient upon completion of treatment.

hepatitis B virus (HBV) [2] = assay: as above; type: in vivo, human
[3] = month 2 (1 month after treatment)
[4] = month 4 (3 months after treatment)

CC(C)(C)NC(=O)[C@@H]1C[C@@H]2CCCC[C@@H]2CN1C[C@@H](O)[C@H](Cc1ccccc1)NC(=O)[C@H](CC(N)=O)NC(=O)c1ccc2ccccc2n1 [Invirasa]
ALT in Chronic HBV Infection (hepatitis B virus (HBV) [1]): **90.8 ± 5.5 U/L | HbsAg in Chronic HBV Infection (hepatitis B virus (HBV) [1]): **109.0 ± 54.5 ng/mL | PCR (%) in Chronic HBV Infection (hepatitis B virus (HBV) [1]): **70.0* % | ALT in Chronic HBV Infection (hepatitis B virus (HBV) [2]; Baseline (before treatment)): 165.7 ± 17.0 U/L | HbsAg in Chronic HBV Infection (hepatitis B virus (HBV) [2]; Baseline (before treatment)): 137.0 ± 20.6 ng/mL | PCR (%) in Chronic HBV Infection (hepatitis B virus (HBV) [2]; Baseline (before treatment)): 100% | ALT in Chronic HBV Infection (hepatitis B virus (HBV) [2]; [3]): **71.4 ± 6.5 U/L | HbsAg in Chronic HBV Infection (hepatitis B virus (HBV) [2]; [3]): **112.2 ± 22.2 ng/mL | PCR (%) in Chronic HBV Infection (hepatitis B virus (HBV) [2]; [3]): **60.0* % | ALT in Chronic HBV Infection (hepatitis B virus (HBV) [2]; [4]): **71.8 ± 7.4 U/L | HbsAg in Chronic HBV Infection (hepatitis B virus (HBV) [2]; [4]): **172.0 ± 14.5 ng/mL | PCR (%) in Chronic HBV Infection (hepatitis B virus (HBV) [2]; [4]): **60.0%
